Source: ChEMBL document CHEMBL1152179, “Semi-synthesis and biological activity of gamma-lactones analogs of camptothecin” (Bioorg Med Chem Lett, 2008)
Activity calls are given as the source filed them. The rule behind the calls is not given here.

Assays:
Assay type in all cases: functional, cell-based
A549 [1] = assay: Cytotoxicity against human A549 cells by SRB method
HT-29 [2] = assay: Cytotoxicity against human HT-29 cells by SRB method
A549 [3] = assay: Cytotoxicity against human A549 cells upto 100 uM by SRB method
HT-29 [4] = assay: Cytotoxicity against human HT-29 cells upto 100 uM by SRB method

Compound | IC50 (A549 [1]) [µM] | IC50 (HT-29 [2]) [µM] | Activity (A549 [3]) | Activity (HT-29 [4])
CC[C@@]1(C(=O)NCCN2CCOCC2)OC(=O)c2c1cc1n(c2=O)Cc2c-1nc1ccc(OC)cc1c2C1CCCC1 | 96.5 | 62.9 | – | –
CC[C@@]1(C(=O)NCCN2CCOCC2)OC(=O)c2c1cc1n(c2=O)Cc2c-1nc1ccccc1c2C1CCCC1 | – | – | inactive | inactive
CC[C@@]1(C(=O)NCCN2CCOCC2)OC(=O)c2c1cc1n(c2=O)Cc2c-1nc1ccccc1c2C(=O)C1CC1 | – | – | inactive | inactive
CCN(CC)CCNC(=O)[C@]1(CC)OC(=O)c2c1cc1n(c2=O)Cc2cc3ccccc3nc2-1 | 65.3 | 31.6 | – | –
CC[C@@]1(O)C(=O)OCc2c1cc1n(c2=O)Cc2cc3c(CN(C)C)c(O)ccc3nc2-1 [TOPOTECAN] | 0.48 | 0.375 | – | –
CC[C@@]1(C(=O)NCCN2CCOCC2)OC(=O)c2c1cc1n(c2=O)Cc2c-1nc1ccccc1c2C1CCCCC1 | – | – | inactive | inactive
CC[C@@]1(C(=O)NCCN2CCCC2)OC(=O)c2c1cc1n(c2=O)Cc2cc3ccccc3nc2-1 | 94.3 | 31.6 | – | –
CC[C@@]1(C(=O)NCCN2CCSCC2)OC(=O)c2c1cc1n(c2=O)Cc2cc3ccccc3nc2-1 | – | – | inactive | inactive
CCCCNC(=O)[C@]1(CC)OC(=O)c2c1cc1n(c2=O)Cc2cc3ccccc3nc2-1 | 70.1 | 68.3 | – | –
CCCCNC(=O)[C@]1(CC)OC(=O)c2c1cc1n(c2=O)Cc2c-1nc1ccccc1c2CC | – | – | inactive | inactive
CC[C@@]1(C(=O)NCCN2CCN(C)CC2)OC(=O)c2c1cc1n(c2=O)Cc2cc3ccccc3nc2-1 | 53.1 | 7.25 | – | –
CC[C@@]1(C(=O)NCCN2CCOCC2)OC(=O)c2c1cc1n(c2=O)Cc2cc3ccccc3nc2-1 | 25.6 | 39.9 | – | –
CC[C@@]1(C(=O)NCCO)OC(=O)c2c1cc1n(c2=O)Cc2cc3ccccc3nc2-1 | – | – | inactive | inactive
CC[C@@]1(C(=O)NCCN2CCCCC2)OC(=O)c2c1cc1n(c2=O)Cc2cc3ccccc3nc2-1 | 74.9 | 31.6 | – | –
CC[C@@]1(C(N)=O)OC(=O)c2c1cc1n(c2=O)Cc2cc3ccccc3nc2-1 | – | – | inactive | inactive
CCc1c2c(nc3ccc(OC)cc13)-c1cc3c(c(=O)n1C2)C(=O)O[C@@]3(CC)C(=O)NCCN1CCOCC1 | – | – | inactive | inactive
CC[C@@]1(C(=O)NCCCO)OC(=O)c2c1cc1n(c2=O)Cc2cc3ccccc3nc2-1 | – | – | inactive | inactive
CCc1c2c(nc3ccc(O)cc13)-c1cc3c(c(=O)n1C2)COC(=O)[C@]3(O)CC [7-ETHYL-10-HYDROXYCAMPTOTHECIN] | 0.08 | 0.12 | – | –
